Consider 16 compounds from US10280198B2, “Therapeutic agents for reducing parathyroid hormone levels” (KAI PHARMACEUTICALS, INC., priority 2009, dated 2019).

Series [1] relates to rat peritoneal mast cells. Briefly: In vitro histamine induction in rat peritoneal mast cells. It counts as cell-based. The procedure:
To further evaluate the relationship between compound structure and histamine release, a series of compounds was prepared and assessed for their ability to trigger induction of histamine in an in vitro assay using rat peritoneal mast cells. In this assay, compounds are incubated at 10 μM for 15 minutes at 37° C. with cells isolated from peritoneal lavage of SD rats. Following incubation, cell medium is collected and histamine is determined.
Accordingly, and as can be appreciated in view of the PTH data and the histamine data described hereinabove, in one embodiment, a compound that has activity to decrease PTH level in a subject in the absence of a histamine response is contemplated. In certain embodiments, absence of a histamine response intends a dose of the compound that produces a less than 10-fold, more preferably 8-fold, still more preferably 5-fold, and even still more preferably 3-fold, increase in histamine, measured in vitro in an assay as described herein, where the fold change is determined based on histamine levels before incubation with the compound and after 15 minutes incubation with compound. In a specific embodiment, the histamine response is determined in an in vitro assay using rat peritoneal mast cells isolated from peritoneal lavage of normal Sprague Dawley rats, and where the fold change is determined based on histamine levels before incubation with the compound and after 15 minutes incubation with compound. In the studies conducted herein, the in vitro evaluation of histamine release was performed using isolated rat peritoneal mast cells isolated by peritoneal lavage using cold HBSS+25 mM HEPES pH 7.4 containing heparin (5 u/mL). Cells were washed twice in stimulation buffer (HBSS+25 mM HEPES pH 7.4) and incubated with 10 μM of compound in stimulation buffer (HBSS+25 mM HEPES pH 7.4) for 15 minutes in a 96-well plate ([…]) at 37° C. Cell supernatant was analyzed for histamine using histamine EIA kit (Cayman #589651).
For in vitro evaluation of histamine release, isolated rat peritoneal mast cells were isolated by performing peritoneal lavage using cold HBSS+25 mM HEPES pH 7.4 containing heparin (5 u/mL). Cells were washed twice in stimulation buffer (HBSS+25 mM HEPES pH 7.4) and incubated with 10 μM of compound in stimulation buffer (HBSS+25 mM HEPES pH 7.4) for 15 minutes in a 96-well plate (10^6/well) at 37° C. Cell supernatant was analyzed for histamine using histamine EIA kit (Cayman #589651).

For another series, the system named is plasma PTH. Briefly: In vivo PTH lowering after IV bolus in isoflurane-anesthetized normal Sprague Dawley rats. The following applies: for 0.5 mg/kg IV bolus % PTH AUC of saline control: normal rats, AUC 1-4 h. Further details: species or system rat. On the procedure:
The peptides were administered intravenously at a dose of 0.5 mg/kg into isoflurane-anesthetized normal Sprague Dawley rats. A control group of rats was treated with saline. Blood was drawn prior to dosing and every hour for 4 hours. Rats were maintained under isoflurane anesthesia for the entire study. […] Percent PTH reduction was calculated according to the following formula: AUCcmpd treated/AUCsaline control*100.
An intravenous (IV) bolus of saline was used as a control. Plasma (K2EDTA) PTH levels were assessed prior to dosing and 1, 2, 3 and 4 hours after dosing. Rats were maintained under isoflurane anesthesia for the entire study. […] In FIG. 2B, PTH is shown as percent of the baseline pre-dose value.
A series of compounds having an L-amino acid residue substituted for a D-amino acid residue were prepared. The compounds were administered as an IV bolus to normal Sprague Dawley rats at a dose of 0.5 mg/kg. An intravenous (IV) bolus of saline was used as a control. […] Rats were maintained under isoflurane anesthesia for the entire study.

Square brackets hold non-standard residues; d marks the D form. Peptide text beside a SMILES is read from it. dNle = CCCC[C@@H](N)C(=O)O; dNva = CCC[C@@H](N)C(=O)O

For `CC(=O)N[C@H](CS)C(=O)N[C@H](CCCNC(=N)N)C(=O)N[C@H](CCCNC(=N)N)C(=O)N[C@H](Cc1c[nH]cn1)C(=O)N[C@H](CCCNC(=N)N)C(=O)N[C@H](C)C(=O)N[C@H](CCCNC(=N)N)C(N)=O` [SEQ ID NO: 109, Ac-crrhrar-NH2] (Ac-[dC][dR][dR][dH][dR][dA][dR]-NH2), the “Histamine in vitro Fold change of non-treated at 10 uM” value in series [1] stood at 2.3 fold. In the series on plasma PTH (Table 6), the “0.5 mg/kg IV bolus % PTH AUC of saline control” value (“0.5 mg/kg IV bolus % PTH AUC” below) is given as 9%.
For `CC(=O)N[C@H](CS)C(=O)NCC(=O)N[C@H](CCCNC(=N)N)C(=O)N[C@H](CCCNC(=N)N)C(=O)N[C@H](CCCNC(=N)N)C(=O)N[C@H](C)C(=O)N[C@H](CCCNC(=N)N)C(N)=O` [SEQ ID NO: 95, Ac-cGrrrar-NH2] (Ac-[dC]G[dR][dR][dR][dA][dR]-NH2), in that order: 1.5 fold and 45%.
On to `CC(=O)N[C@H](CS)C(=O)N[C@H](CCCNC(=N)N)C(=O)N[C@H](CCCNC(=N)N)C(=O)N[C@H](C)C(=O)N[C@H](C)C(=O)N[C@H](CCCNC(=N)N)C(=O)N[C@H](CCCNC(=N)N)C(N)=O` [SEQ ID NO: 17, Ac-crraarr-NH2] (Ac-[dC][dR][dR][dA][dA][dR][dR]-NH2), for which the “Histamine in vitro Fold change of non-treated at 10 uM” value in series [1] is listed as 1.3 fold. Further, the “% PTH reduction of baseline at 1 hour post IV administration of 0.5 mg/kg compound” value in the series with plasma PTH (Table 2, isoflurane-anesthetized normal rats, 0.5 mg/kg IV, 1 hour) is recorded as 39%. The “0.5 mg/kg IV bolus % PTH AUC” value in the series on plasma PTH (Table 2) was 102%.
On to `CC(=O)N[C@H](CS)C(=O)N[C@H](CCCNC(=N)N)C(=O)N[C@H](CCCNC(=N)N)C(=O)N[C@H](CCC(N)=O)C(=O)N[C@H](CCCNC(=N)N)C(=O)N[C@H](C)C(=O)N[C@H](CCCNC(=N)N)C(N)=O` [SEQ ID NO: 112, Ac-crrqrar-NH2] (Ac-[dC][dR][dR][dQ][dR][dA][dR]-NH2), for which the “Histamine in vitro Fold change of non-treated at 10 uM” value in series [1] stood at 1.2 fold. The “0.5 mg/kg IV bolus % PTH AUC” value in the series on plasma PTH (Table 6) was 4%.
Taken in the same sequence, the figures for `CC(=O)N[C@H](CS)C(=O)N[C@H](CC(C)C)C(=O)N[C@H](CCCNC(=N)N)C(=O)N[C@H](CCCNC(=N)N)C(=O)N[C@H](CCCNC(=N)N)C(=O)N[C@H](C)C(=O)N[C@H](CCCNC(=N)N)C(N)=O` [SEQ ID NO: 98, Ac-clrrrar-NH2] (Ac-[dC][dL][dR][dR][dR][dA][dR]-NH2) were 2.2 fold and 26%.
Taken in the same sequence, the figures for `CC(=O)N[C@H](CS)C(=O)N[C@@H](C(=O)N[C@H](CCCNC(=N)N)C(=O)N[C@H](CCCNC(=N)N)C(=O)N[C@H](CCCNC(=N)N)C(=O)N[C@H](C)C(=O)N[C@H](CCCNC(=N)N)C(N)=O)[C@H](C)O` [SEQ ID NO: 100, Ac-ctrrrar-NH2] (Ac-[dC][dT][dR][dR][dR][dA][dR]-NH2) were 1.1 fold and 23%.
Take `CCCC[C@@H](NC(=O)[C@@H](CCCNC(=N)N)NC(=O)[C@@H](C)NC(=O)[C@@H](CCCNC(=N)N)NC(=O)[C@@H](CCCNC(=N)N)NC(=O)[C@@H](CS)NC(C)=O)C(=O)N[C@H](CCCNC(=N)N)C(N)=O` [SEQ ID NO: 133, Ac-crrar-dNle-r-NH2] (Ac-[dC][dR][dR][dA][dR][dNle][dR]-NH2): in series [1], the “Histamine in vitro Fold change of non-treated at 10 uM” value was 4.3 fold. Moreover, the “0.5 mg/kg IV bolus % PTH AUC” value with plasma PTH (Table 7) is 26%.
In the case of `CC(=O)N[C@H](CS)C(=O)N[C@H](C)C(=O)N[C@H](CCCNC(=N)N)C(=O)N[C@H](CCCNC(=N)N)C(=O)N[C@H](CCCNC(=N)N)C(=O)N[C@H](Cc1ccccc1)C(=O)N[C@H](CCCNC(=N)N)C(N)=O` [SEQ ID NO: 83, Ac-carrrfr-NH2] (Ac-[dC][dA][dR][dR][dR][dF][dR]-NH2), the “Histamine in vitro Fold change of non-treated at 10 uM” value in series [1] is 4.0 fold. In the series on plasma PTH (Table 6), the “0.5 mg/kg IV bolus % PTH AUC” value is 177%.
For `CC(=O)N[C@H](CS)C(=O)N[C@H](C)C(=O)N[C@H](CCCNC(=N)N)C(=O)N[C@H](CCCNC(=N)N)C(=O)N[C@H](CCCNC(=N)N)C(=O)NCC(=O)N[C@H](CCCNC(=N)N)C(N)=O` [SEQ ID NO: 93, Ac-carrrGr-NH2] (Ac-[dC][dA][dR][dR][dR]G[dR]-NH2), in that order: 0.9 fold and 5%.
For `CC(=O)N[C@H](CS)C(=O)N[C@H](Cc1c[nH]cn1)C(=O)N[C@H](CCCNC(=N)N)C(=O)N[C@H](CCCNC(=N)N)C(=O)N[C@H](CCCNC(=N)N)C(=O)N[C@H](C)C(=O)N[C@H](CCCNC(=N)N)C(N)=O` [SEQ ID NO: 103, Ac-chrrrar-NH2] (Ac-[dC][dH][dR][dR][dR][dA][dR]-NH2), in that order: 1.6 fold and 1%.
As to `CCC[C@@H](NC(=O)[C@@H](CS)NC(C)=O)C(=O)N[C@H](CCCNC(=N)N)C(=O)N[C@H](CCCNC(=N)N)C(=O)N[C@H](CCCNC(=N)N)C(=O)N[C@H](C)C(=O)N[C@H](CCCNC(=N)N)C(N)=O` [SEQ ID NO: 136, Ac-c-dNva-rrrar-NH2] (Ac-[dC][dNva][dR][dR][dR][dA][dR]-NH2), the “Histamine in vitro Fold change of non-treated at 10 uM” value in series [1] is 2.1 fold. The “0.5 mg/kg IV bolus % PTH AUC” value with plasma PTH (Table 7) is 7%.
On to `CC(=O)N[C@H](CS)C(=O)N[C@H](CCCNC(=N)N)C(=O)N[C@H](CCCNC(=N)N)C(=O)N[C@@H](C(=O)N[C@H](CCCNC(=N)N)C(=O)N[C@H](C)C(=O)N[C@H](CCCNC(=N)N)C(N)=O)C(C)C` [SEQ ID NO: 113, Ac-crrvrar-NH2] (Ac-[dC][dR][dR][dV][dR][dA][dR]-NH2), for which the “Histamine in vitro Fold change of non-treated at 10 uM” value in series [1] was 1.9 fold. Further, in the series with plasma PTH (Table 6), the “0.5 mg/kg IV bolus % PTH AUC” value is 3%.
Taken in the same sequence, the figures for `CC(=O)N[C@H](CS)C(=O)N[C@H](C)C(=O)N[C@H](CCCNC(=N)N)C(=O)N[C@H](CCCNC(=N)N)C(=O)N[C@H](CCCNC(=N)N)C(=O)N[C@H](CCC(N)=O)C(=O)N[C@H](CCCNC(=N)N)C(N)=O` [SEQ ID NO: 90, Ac-carrrqr-NH2] (Ac-[dC][dA][dR][dR][dR][dQ][dR]-NH2) were 0.9 fold and 41%.
`CC(=O)N[C@H](CS)C(=O)N[C@H](C)C(=O)N[C@H](CCCNC(=N)N)C(=O)N[C@H](CCCNC(=N)N)C(=O)N[C@H](CCCNC(=N)N)C(=O)N[C@@H](C(=O)N[C@H](CCCNC(=N)N)C(N)=O)[C@H](C)O` [SEQ ID NO: 91, Ac-carrrtr-NH2] (Ac-[dC][dA][dR][dR][dR][dT][dR]-NH2): in series [1], the “Histamine in vitro Fold change of non-treated at 10 uM” value worked out at 1.7 fold. For the same compound, the “0.5 mg/kg IV bolus % PTH AUC” value in the series with plasma PTH (Table 6) was 18%.
With `CCC[C@@H](NC(=O)[C@@H](CCCNC(=N)N)NC(=O)[C@@H](CCCNC(=N)N)NC(=O)[C@@H](CCCNC(=N)N)NC(=O)[C@@H](C)NC(=O)[C@@H](CS)NC(C)=O)C(=O)N[C@H](CCCNC(=N)N)C(N)=O` [SEQ ID NO: 131, Ac-carrr-dNva-r-NH2] (Ac-[dC][dA][dR][dR][dR][dNva][dR]-NH2), the “Histamine in vitro Fold change of non-treated at 10 uM” value in series [1] is 1.8 fold. For the same compound, the “0.5 mg/kg IV bolus % PTH AUC” value with plasma PTH (Table 7) stood at 54%.
With `CC(=O)N[C@H](CS)C(=O)N[C@H](C)C(=O)N[C@H](CCCNC(=N)N)C(=O)N[C@H](CCCNC(=N)N)C(=O)N[C@H](CCCNC(=N)N)C(=O)N[C@H](CO)C(=O)N[C@H](CCCNC(=N)N)C(N)=O` [SEQ ID NO: 92, Ac-carrrsr-NH2] (Ac-[dC][dA][dR][dR][dR][dS][dR]-NH2), in series [1], the “Histamine in vitro Fold change of non-treated at 10 uM” value amounted to 1.2 fold. For the same compound, in the series with plasma PTH (Table 6), the “0.5 mg/kg IV bolus % PTH AUC” value is 6%.
